Here are results for 16 compounds from patent US20070037862A1, “Thiazolidinones, their production and use as pharmaceutical agents” (priority 2003, published 2007).

For the first assay, the system named is human MaTu breast tumor cells. Nature of the assay: Proliferation assay (crystal violet). Type of assay: cell-based. Conditions: 96 h, Table 2, Amides, 4 days, read-out: Inhibition of Tumor Cell Proliferation (MaTu) IC50. As for the experimental part:
Cultivated human MaTu breast tumor cells were flattened out at a density of 5000 cells/measuring point in a 96-well multititer plate in 200 μl of the corresponding growth medium. After 24 hours, the cells of one plate (zero-point plate) were colored with crystal violet (see below), while the medium of the other plates was replaced by fresh culture medium (200 μl), to which the test substances were added in various concentrations (0 μm, as well as in the range of 0.01-30 μm; the final concentration of the solvent dimethyl sulfoxide was 0.5%). The cells were incubated for 4 days in the presence of test substances. The cell proliferation was determined by coloring the cells with crystal violet: the cells were fixed by adding 20 μl/measuring point of an 11% glutaric aldehyde solution for 15 minutes at room temperature. After three washing cycles of the fixed cells with water, the plates were dried at room temperature. The cells were colored by adding 100 μl/measuring point of a 0.1% crystal violet solution (pH was set at 3 by adding acetic acid). After three washing cycles of the colored cells with water, the plates were dried at room temperature. The dye was dissolved by adding 100 μl/measuring point of a 10% acetic acid solution. The extinction was determined by photometry at a wavelength of 595 nm. The change of cell growth, in percent, was calculated by standardization of the measured values to the extinction values of the zero-point plate (=0%) and the extinction of the untreated (0 μm) cells (=100%).
In the case of `CCNC(=O)/C(C#N)=c1\sc(=CNc2cccc(C(=O)NCCCN3CCCC3)c2)c(=O)n1CC` [Example 169], the IC50 worked out at 3.55 µM.
In the case of `CCn1c(=O)c(=CNc2cccc(NC(=O)C(C)(C)C)c2)s/c1=C(/C#N)C(=O)NC1(CO)CCCC1` [Example 192], the IC50 amounted to 9.7 µM.
Same read-out and setting: with `CCn1c(=O)c(=CNc2ccccc2)s/c1=C(/C#N)C(=O)N1CCCC1` [Example 210] the figure was 4.5 µM.
Same read-out and setting: with `CCN(CC)CCNC(=O)c1c[nH]c2ccc(NC=c3s/c(=C(/C#N)C(=O)NCC(F)(F)F)n(CC)c3=O)cc12` [Example 330] the figure was 1.2 µM.
Still for that read-out and setting: with `CCn1c(=O)c(=CNc2ccc(CCN3CCCC3)cc2)s/c1=C(/C#N)C(=O)NCC(F)(F)F` [Example 527] the figure was 2.8 µM.

The assay is the same for the next values; noted with them: 96 h, Table 3, Esters, 4 days, read-out: Inhibition of Tumor Cell Proliferation (MaTu) IC50.
On to `C=CCOC(=O)C(C#N)=c1sc(=CNc2ccc(NC(=O)NCCN3CCCC3)cc2)c(=O)n1CC` (mixture of isomers) [Example 47], for which the IC50 came to 1.1 µM.
With `CCOC(=O)C(C#N)=c1sc(=CNc2ccc(C(C)=O)cc2)c(=O)n1CC` (mixture of isomers) [Example 132], the IC50 is 3.1 µM.
Same read-out and setting: to `C=CCOC(=O)C(C#N)=c1sc(=CNc2ccc(C(C)=O)cc2)c(=O)n1CC` (mixture of isomers) [Example 133] belongs 1.4 µM; to `CCOC(=O)C(C#N)=c1sc(=CNc2ccc(NC(=O)NCCN3CCCC3)cc2)c(=O)n1CC` [Example 74], 3.3 µM.

A further assay deals with T1, Recombinant human Plk-1 (6×His) (Homo sapiens, UniProt P53350).
T1 construct: 6xHis; made in house; host or cells: baculovirus-infected Hi5 insect cells
T1 sequence (P53350 whole entry): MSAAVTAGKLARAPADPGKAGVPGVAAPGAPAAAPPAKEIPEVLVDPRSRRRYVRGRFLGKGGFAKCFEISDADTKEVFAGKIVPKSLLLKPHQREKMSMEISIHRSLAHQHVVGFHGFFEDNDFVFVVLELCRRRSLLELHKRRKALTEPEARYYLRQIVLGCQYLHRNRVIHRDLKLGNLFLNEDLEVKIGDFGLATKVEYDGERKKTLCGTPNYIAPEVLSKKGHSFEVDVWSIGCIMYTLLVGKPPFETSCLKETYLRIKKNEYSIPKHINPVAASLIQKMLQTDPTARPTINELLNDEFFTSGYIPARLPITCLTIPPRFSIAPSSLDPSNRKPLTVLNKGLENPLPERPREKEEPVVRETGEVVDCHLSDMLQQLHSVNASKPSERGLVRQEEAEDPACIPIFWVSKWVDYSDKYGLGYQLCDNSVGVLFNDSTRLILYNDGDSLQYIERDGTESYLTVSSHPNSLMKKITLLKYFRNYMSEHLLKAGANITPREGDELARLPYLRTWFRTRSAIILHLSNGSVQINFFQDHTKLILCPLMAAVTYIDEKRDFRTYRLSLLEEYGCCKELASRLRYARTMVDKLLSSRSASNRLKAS
As to the kind of experiment: PLK enzyme assay. Type of assay: biochemical. The following applies: Table 1; read-out: PLK IC50. As for the experimental part:
Recombinant human Plk-1 (6×His) was purified from baculovirus-infected insect cells (Hi5).
10 ng of (produced in a recombinant manner and purified) PLK enzyme is incubated for 90 minutes at room temperature with biotinylated casein and 33P-γ-ATP as a substrate in a volume of 15 μl in 384-well Greiner small-volume microtiter plates (final concentrations in the buffer: 660 ng/ml of PLK; 0.7 μmol of casein, 0.5 μmol of ATP incl. 400 nCi/ml of 33P-γ-ATP; 10 mmol of MgCl2, 1 mmol of MnCl2; 0.01% NP40; 1 mmol of DTT, protease inhibitors; 0.1 mmol of Na2VO3 in 50 mmol of HEPES, pH 7.5). To complete the reaction, 5 μl of stop solution (500 μmol of ATP; 500 mmol of EDTA; 1% Triton X100; 100 mg/ml of streptavidin-coated SPA beads in PBS) is added. After the microtiter plate is sealed by film, the beads are sedimented by centrifuging (10 minutes, 1500 rpm). The incorporation of 33P-γ-ATP in casein is intended as a measurement of enzyme activity by β-counting.
Test substances are used in various concentrations (0 μmol, as well as in the range of 0.01-30 ∥mol). The final concentration of the solvent dimethyl sulfoxide is 1.5% in all batches.
Consider `CCOC(=O)C(C#N)=c1sc(=CNc2ccccc2F)c(=O)n1CC` (mixture of isomers) [Example 36], for which the IC50 came out at 160 nM.
`CCOC(=O)C(C#N)=c1sc(=CNc2ccc(OC)c(NC(=S)N3CCOCC3)c2)c(=O)n1CC` (mixture of isomers) [Example 56]: the IC50 is 810 nM.
Still for that read-out and setting: to `CCOC(=O)C(C#N)=c1sc(=CNc2ccc(NC(=O)COC)cc2)c(=O)n1CC` [Example 19] belongs 500 nM.
The same measure, in the same setting: to `CCn1c(=O)c(=CNc2ccccc2)s/c1=C(/C#N)C(=O)NCc1ccco1` [Example 223] belongs 3100 nM; to `CCCCN(C)C(=O)/C(C#N)=c1\sc(=CNc2ccccc2)c(=O)n1CC` [Example 234], 950 nM.

Still in this assay, the particulars now being: Table 2, Amides; read-out: Inhibition of Plk-1 IC50.
In the case of `C#CCNC(=O)/C(C#N)=c1\sc(=CNc2ccc(OCCN(C)C)cc2)c(=O)n1CC` [Example 307], the IC50 is 71 nM.
In the case of `CCn1c(=O)c(=CNc2ccc(OCCN(C)C)cc2)s/c1=C(/C#N)C(=O)NCC(F)F` [Example 310], the IC50 is 74 nM.

Staying with this assay, now noted: Table 3, Esters; read-out: Inhibition of Plk-1 IC50.
Consider `C=CCOC(=O)C(C#N)=c1sc(=CNc2ccc(NC(=O)NCCN3CCCC3)cc2)c(=O)n1CC` (mixture of isomers) [Example 47], for which the IC50 was found to be 23 nM.
